Reference: the NIST ThermoML archive (doi:10.1016/j.fluid.2004.09.013)
± gives the expanded uncertainty stated by the source.

Settings: for mass density: Fluid (supercritical or subcritical phases), Vibrating tube method

C/C=C/C [(E)-2-butene]
Settings | Critical density [kg/m3] | mass density [kg/m3]
453.25 K, 34989 kPa | – | 504.85 ± 1.3
453.25 K, 39997 kPa | – | 515.79 ± 1.4
458.25 K, 5018 kPa | – | 143.71 ± 0.66
458.25 K, 15001 kPa | – | 424.61 ± 0.95
458.25 K, 20004 kPa | – | 451.96 ± 1.1
458.25 K, 24994 kPa | – | 471.69 ± 1.1
458.25 K, 30004 kPa | – | 487.34 ± 1.2
458.25 K, 34994 kPa | – | 500.33 ± 1.3
458.25 K, 40004 kPa | – | 511.57 ± 1.4
458.26 K, 9992 kPa | – | 376.95 ± 0.89
463.25 K, 5019 kPa | – | 132.86 ± 0.64
463.25 K, 9998 kPa | – | 364.93 ± 0.87
463.25 K, 14997 kPa | – | 416.89 ± 0.94
463.25 K, 20001 kPa | – | 445.66 ± 1
463.25 K, 24994 kPa | – | 466.25 ± 1.1
463.25 K, 29992 kPa | – | 482.44 ± 1.2
463.25 K, 34997 kPa | – | 495.87 ± 1.3
463.25 K, 39985 kPa | – | 507.37 ± 1.4
468.25 K, 5019 kPa | – | 124.67 ± 0.62
468.25 K, 14984 kPa | – | 408.44 ± 0.92
468.25 K, 19991 kPa | – | 439.31 ± 1
468.25 K, 24990 kPa | – | 460.78 ± 1.1
468.25 K, 29991 kPa | – | 477.55 ± 1.2
468.25 K, 34993 kPa | – | 491.38 ± 1.3
468.25 K, 39991 kPa | – | 503.2 ± 1.4
468.26 K, 9993 kPa | – | 352.22 ± 0.85
473.25 K, 5018 kPa | – | 118.06 ± 0.6
473.25 K, 9998 kPa | – | 339.4 ± 0.83
473.25 K, 15002 kPa | – | 400.67 ± 0.91
473.25 K, 19991 kPa | – | 432.96 ± 1
473.25 K, 24985 kPa | – | 455.31 ± 1.1
473.25 K, 29991 kPa | – | 472.65 ± 1.2
473.25 K, 35002 kPa | – | 486.9 ± 1.3
473.25 K, 39993 kPa | – | 499.03 ± 1.4
478.25 K, 5018 kPa | – | 112.62 ± 0.57
478.25 K, 9993 kPa | – | 326 ± 0.8
478.25 K, 14989 kPa | – | 392.47 ± 0.89
478.25 K, 19985 kPa | – | 426.52 ± 0.99
478.25 K, 25003 kPa | – | 449.85 ± 1.1
478.25 K, 29992 kPa | – | 467.75 ± 1.2
478.25 K, 35005 kPa | – | 482.42 ± 1.3
478.25 K, 40012 kPa | – | 494.85 ± 1.4
483.25 K, 5018 kPa | – | 107.95 ± 0.55
483.25 K, 9988 kPa | – | 312.49 ± 0.77
483.25 K, 14996 kPa | – | 384.28 ± 0.88
483.25 K, 19982 kPa | – | 420.06 ± 0.98
483.25 K, 25007 kPa | – | 444.4 ± 1.1
483.25 K, 29987 kPa | – | 462.83 ± 1.2
483.25 K, 35000 kPa | – | 477.93 ± 1.2
483.25 K, 39990 kPa | – | 490.66 ± 1.3
488.25 K, 5018 kPa | – | 103.9 ± 0.53
488.25 K, 9985 kPa | – | 299.1 ± 0.75
488.25 K, 14997 kPa | – | 376.01 ± 0.86
488.25 K, 20002 kPa | – | 413.74 ± 0.97
488.25 K, 25005 kPa | – | 438.9 ± 1.1
488.25 K, 29988 kPa | – | 457.94 ± 1.1
488.25 K, 34992 kPa | – | 473.43 ± 1.2
488.25 K, 40013 kPa | – | 486.57 ± 1.3
493.25 K, 5018 kPa | – | 100.36 ± 0.5
493.25 K, 9986 kPa | – | 285.99 ± 0.72
493.25 K, 14990 kPa | – | 367.61 ± 0.85
493.25 K, 20001 kPa | – | 407.28 ± 0.95
493.25 K, 25006 kPa | – | 433.4 ± 1.1
493.25 K, 29986 kPa | – | 453.04 ± 1.1
493.25 K, 35005 kPa | – | 469.02 ± 1.2
493.25 K, 39997 kPa | – | 482.38 ± 1.3
498.25 K, 5018 kPa | – | 97.2 ± 0.48
498.25 K, 9992 kPa | – | 273.51 ± 0.7
498.25 K, 14982 kPa | – | 359.21 ± 0.83
498.25 K, 19993 kPa | – | 400.8 ± 0.94
498.25 K, 25004 kPa | – | 427.91 ± 1
498.25 K, 29983 kPa | – | 448.16 ± 1.1
498.25 K, 35000 kPa | – | 464.56 ± 1.2
498.25 K, 39994 kPa | – | 478.26 ± 1.3
503.25 K, 5019 kPa | – | 94.38 ± 0.46
503.25 K, 9995 kPa | – | 261.54 ± 0.67
503.25 K, 14996 kPa | – | 351.04 ± 0.82
503.25 K, 19991 kPa | – | 394.38 ± 0.93
503.25 K, 25000 kPa | – | 422.42 ± 1
503.25 K, 30008 kPa | – | 443.38 ± 1.1
503.25 K, 35007 kPa | – | 460.15 ± 1.2
503.25 K, 39992 kPa | – | 474.14 ± 1.3
508.25 K, 5017 kPa | – | 91.73 ± 0.44
508.25 K, 9986 kPa | – | 249.99 ± 0.64
508.25 K, 14991 kPa | – | 342.7 ± 0.8
508.25 K, 19987 kPa | – | 387.81 ± 0.92
508.25 K, 24998 kPa | – | 416.93 ± 1
508.25 K, 30007 kPa | – | 438.53 ± 1.1
508.25 K, 34991 kPa | – | 455.68 ± 1.2
508.25 K, 39996 kPa | – | 470.06 ± 1.3
513.25 K, 5019 kPa | – | 89.39 ± 0.42
513.25 K, 9982 kPa | – | 239.32 ± 0.62
513.25 K, 14985 kPa | – | 334.4 ± 0.79
513.25 K, 19985 kPa | – | 381.11 ± 0.9
513.25 K, 24987 kPa | – | 411.43 ± 1
513.25 K, 29999 kPa | – | 433.67 ± 1.1
513.25 K, 34992 kPa | – | 451.29 ± 1.2
513.25 K, 39993 kPa | – | 465.98 ± 1.3
518.24 K, 30001 kPa | – | 428.87 ± 1.1
518.24 K, 35000 kPa | – | 446.94 ± 1.2
518.25 K, 5016 kPa | – | 87.15 ± 0.4
518.25 K, 9990 kPa | – | 229.8 ± 0.6
518.25 K, 14984 kPa | – | 326.26 ± 0.77
518.25 K, 20002 kPa | – | 374.92 ± 0.89
518.25 K, 24995 kPa | – | 406.05 ± 1
518.25 K, 39988 kPa | – | 461.92 ± 1.3
523.24 K, 24994 kPa | – | 400.62 ± 0.99
523.24 K, 39996 kPa | – | 457.91 ± 1.3
523.25 K, 5016 kPa | – | 85.12 ± 0.39
523.25 K, 9982 kPa | – | 220.69 ± 0.63
523.25 K, 14998 kPa | – | 318.44 ± 0.8
523.25 K, 20000 kPa | – | 368.56 ± 0.89
523.25 K, 29990 kPa | – | 424.03 ± 1.1
523.25 K, 34989 kPa | – | 442.55 ± 1.2
Liquid, visual observation in a variable volume cell:FP | 236.4 ± 4.7 | –

Liquid
Settings | Critical pressure [kPa] | Critical temperature [K]
– | 4027.3 ± 11 | 428.61 ± 0.11
